The results in this text go back to PubChem BioAssay AID504737 (National Center for Advancing Translational Sciences (NCATS), 2011).

The data set concerns Caco-2 permeability, B->A Papp, LC-MS/MS. Nature of the data set: Inhibitors of Bloom's syndrome helicase: Caco-2 Permeability Profiling Assay. Conditions: active compounds read high. From the text: Survival of cells and the faithful propagation of the genome depend on elaborate mechanisms of detecting and repairing DNA damage. Treatment of advanced cancer relies on radiation therapy or chemotherapy, which kill cancer cells by causing extensive DNA damage. It is often found, that cancer cells develop resistance to therapy through enhanced activity of DNA repair functions; this has led to an increased interest in developing drugs that interfere with DNA repair, which could sensitize cancer cells to conventional therapy. Bloom syndrome helicase (BLM), is important in resolving abnormal DNA structures formed during replication or homologous recombination. Shutting down the expression of BLM leads to chromosomal instability and higher radiation sensitivity in cultured cells. This permeability assay predicts the in vivo absorption of the lead across the intestinal lining by using a Caco-2 cell line and measuring the lead's […]. […] NIH Chemical Genomics Center [NCGC] NIH Molecular Libraries Probe Production Centers Network [MLPCN] MLSCN Grant: MH087284 PI Name: Dr. Opher Gileadi, Structural Genomics Consortium, University of Oxford, UK
1. […] The T0, LY and T90, LY plates are read by FlexStation 3 at excitation of 485 nm and emission of 535 nm to determine LY permeability. […]

For the compound `O=C(Nc1ccc(F)c(C(F)(F)F)c1)Nc1nnc(-c2ccncc2)s1`, the permeability B->A Papp was 1 10^-6 cm/s.
